Measured values: the supplement of paper PMC8024199
± gives the standard deviation of the averaged measurements.

Columns and labels:
Experiment in all cases: drug sensitivity score (DSS) (DSS score); higher = more sensitive (stronger growth inhibition); extreme values may be limits of the assay
[1] = system: Ba/F3 P210-BCR-ABL1 RUNX1-/- (mouse)
Procedure, shortened: (§1)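 A drug sensitivity score summarised each dose-response curve, with luminescence from CellTiter-Glo scaled between vehicle and positive-control wells. Values are the mean of two replicates. The cells were mouse Ba/F3 clones that were CRISPR/Cas9-edited at a target exon or were edited controls, exposed on pre-printed 384-well plates to a 528-compound library at five concentrations spanning a 10,000-fold range. Plates held 10,000 cells per well in RPMI with 10% FBS for 72 h at 37 °C and 5% CO2.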

[2] = system: Ba/F3 P210-BCR-ABL1 RUNX1-/mut (mouse)
Procedure, shortened: as §1

[3] = system: Ba/F3 P210-BCR-ABL1 RUNX1wt/wt control (mouse)
Procedure, shortened: as §1

Compound `Cn1cc(C2=Nc3cc(NC(=O)C(N)C4CCCCC4)cc4c3C2=CNNC4=O)cn1` (stereo unspecified) has a drug sensitivity score [1] of 18.2 ± 0.14, a drug sensitivity score [2] of 16 ± 0.42 and a drug sensitivity score [3] of 7.95 ± 1.1.
`COc1ccc(C[C@H](NC(=O)[C@H](C)NC(=O)CN2CCOCC2)C(=O)N[C@@H](Cc2ccccc2)C(=O)C2(C)CO2)cc1` (stereo in doubt) [ONX-0914] was tested, and the drug sensitivity score [1] was 22.05 ± 0.21, the drug sensitivity score [2] was 23.2 ± 2.6 and the drug sensitivity score [3] was 17.8 ± 0.28.
`Cn1cc(C[C@@H](N)C(=O)O)c2ccccc21` [1-methyl-D-tryptophan] was tested, and the drug sensitivity score [1] was 0, the drug sensitivity score [2] was 0 and the drug sensitivity score [3] was 0.
`CC/C(=C(\c1ccc(O)cc1)c1ccc(OCCN(C)C)cc1)c1ccccc1` [4-hydroxytamoxifen] was tested, and the drug sensitivity score [1] was 8.2 ± 0.42, the drug sensitivity score [2] was 8.3 ± 1.1 and the drug sensitivity score [3] was 8.6 ± 0.28.
`Nc1ncnc2c1nc(N)n2[C@@H]1O[C@H](CO)[C@@H](O)[C@H]1O` [8-amino-adenosine] showed a drug sensitivity score [1] of 19.7 ± 0.42, a drug sensitivity score [2] of 15.8 ± 2.4 and a drug sensitivity score [3] of 9.4 ± 0.85.
`Nc1ncnc2c1nc(Cl)n2[C@@H]1O[C@H](CO)[C@@H](O)[C@H]1O` [8-chloro-adenosine] showed a drug sensitivity score [1] of 15.7 ± 1.1, a drug sensitivity score [2] of 13.8 ± 1.3 and a drug sensitivity score [3] of 7.95 ± 0.21.
Work on `COc1cc2c(cc1OCCCN1CCCC1)N=C(N)C21CCC1` [A-366] yielded a drug sensitivity score [1] of 6.1 ± 0.57, a drug sensitivity score [2] of 6.5 ± 3 and a drug sensitivity score [3] of 0.
`C[C@H](Nc1ncnc2[nH]cnc12)c1cc2ccc(F)cc2nc1-c1ccccn1` [AMG319] was tested, and the drug sensitivity score [1] was 0.15 ± 0.21, the drug sensitivity score [2] was 1.1 ± 1.6 and the drug sensitivity score [3] was 0.
With `CC(C)[C@@H](CS(=O)(=O)C(C)C)N1C(=O)[C@@](C)(CC(=O)O)C[C@H](c2cccc(Cl)c2)[C@H]1c1ccc(Cl)cc1` [AMG-232] the drug sensitivity score [1] was 12.7 ± 2.3, the drug sensitivity score [2] was 11.2 ± 1.6 and the drug sensitivity score [3] was 3.7 ± 0.28.
With `COCCOc1cnc2ccn([C@H](C)c3nnc4c(F)cc(-c5cnn(C)c5)cn34)c(=O)c2c1` [AMG-337] the drug sensitivity score [1] was 0, the drug sensitivity score [2] was 0 and the drug sensitivity score [3] was 0.
`CC1CCC(n2c3cnccc3c3cnc(Nc4ccc5c(n4)CCN(C(=O)CO)C5)nc32)CC1` (stereo unspecified) [AMG-925] gave a drug sensitivity score [1] of 4.2 ± 0.42, a drug sensitivity score [2] of 1.8 ± 2.1 and a drug sensitivity score [3] of 0.
Compound `COCC1(CO)C(=O)C2CCN1CC2` (stereo unspecified) [APR-246] has a drug sensitivity score [1] of 1.05 ± 1.5, a drug sensitivity score [2] of 1.4 ± 2 and a drug sensitivity score [3] of 0.35 ± 0.49.
`CC(C)[C@H](C(=O)Nc1ccc(C(=O)NO)cc1)c1ccccc1` [AR-42] gave a drug sensitivity score [1] of 20.3 ± 0.85, a drug sensitivity score [2] of 17.9 ± 1.1 and a drug sensitivity score [3] of 16.5 ± 0.14.
Work on `Cc1sc2c(c1C)C(c1ccc(Cl)cc1)=N[C@@H](CC(=O)Nc1ccc(OCCOCCOCCOCCNc3cccc4c3C(=O)N(C3CCC(=O)NC3=O)C4=O)cc1)c1nnc(C)n1-2` (stereo partly specified) [ARV-825] yielded a drug sensitivity score [1] of 19.8 ± 0.14, a drug sensitivity score [2] of 18.7 ± 3.1 and a drug sensitivity score [3] of 17.9 ± 0.78.
In the case of `COc1cc(N2CCC(N3CCN(C)CC3)CC2)ccc1Nc1ncnc(Nc2ccccc2S(=O)(=O)C(C)C)n1` [ASP3026], the drug sensitivity score [1] is reported as 3.95 ± 1.6, the drug sensitivity score [2] is reported as 3.9 ± 3.7 and the drug sensitivity score [3] is reported as 1.05 ± 0.21.
`O=C(NC1CCNCC1)c1n[nH]cc1NC(=O)c1c(Cl)cccc1Cl` [AT7519] showed a drug sensitivity score [1] of 11.7 ± 3.6, a drug sensitivity score [2] of 13.6 ± 4 and a drug sensitivity score [3] of 2.8 ± 0.42.
For `CN[C@@H](C)C(=O)N[C@H]1CN(C(=O)CC(C)C)CC[C@H]2CC[C@@H](C(=O)NC(c3ccccc3)c3ccccc3)N2C1=O` [AT-406], the drug sensitivity score [1] was 18.4 ± 1.8, the drug sensitivity score [2] was 4.4 ± 6.2 and the drug sensitivity score [3] was 13 ± 1.4.
With `CC[C@H](CC#N)OC(=O)N[C@@H](C)c1cccc(NC(=O)Nc2ccc(-c3cnco3)c(OC)c2)c1` [AVN944] the drug sensitivity score [1] was 25.9 ± 0.42, the drug sensitivity score [2] was 24.95 ± 0.21 and the drug sensitivity score [3] was 21.7 ± 1.6.
Work on `COc1cc(N2CCN(C)CC2)ccc1Nc1nccc(-c2cn(C)c3cnccc23)n1` [AZ191] yielded a drug sensitivity score [1] of 7.2 ± 1.4, a drug sensitivity score [2] of 7.45 ± 2.2 and a drug sensitivity score [3] of 2.5 ± 0.71.
`CN(C)CCCOc1ccc(-c2ccc3ncc4c(c3c2)n(C2CCOCC2)c(=O)n4C)cn1` [AZD0156] was tested, and the drug sensitivity score [1] was 6.8 ± 1.7, the drug sensitivity score [2] was 7.6 ± 0.14 and the drug sensitivity score [3] was 0.
`N[C@@H]1CCCN(c2c(/C=C3\SC(=O)NC3=O)cccc2-c2ccccc2)C1` [AZD1208] showed a drug sensitivity score [1] of 11.8 ± 0.35, a drug sensitivity score [2] of 7.05 ± 2.5 and a drug sensitivity score [3] of 2.4 ± 0.42.
`Cc1cc(Nc2nc(N[C@@H](C)c3ncc(F)cn3)ncc2Cl)[nH]n1` [AZD1480] was tested, and the drug sensitivity score [1] was 0, the drug sensitivity score [2] was 0 and the drug sensitivity score [3] was 0.
For `C=CCn1c(=O)c2cnc(Nc3ccc(N4CCN(C)CC4)cc3)nc2n1-c1cccc(C(C)(C)O)n1` [AZD1775], the drug sensitivity score [1] was 22.8 ± 3.5, the drug sensitivity score [2] was 20.8 ± 1.5 and the drug sensitivity score [3] was 19.1 ± 0.14.
For `COc1cc2ncnc(Nc3cccc(Cl)c3F)c2cc1OC(=O)N1CCN(C)C[C@H]1C` [AZD3759], the drug sensitivity score [1] was 0, the drug sensitivity score [2] was 0 and the drug sensitivity score [3] was 0.
In the case of `Cc1[nH]nc(C(F)(F)F)c1Cc1sc2c(c1C(=O)N1C[C@](C)(O)CO1)c(=O)n(C)c(=O)n2C(C)C` [AZD3965], the drug sensitivity score [1] is reported as 9.05 ± 3.5, the drug sensitivity score [2] is reported as 6.3 ± 0.99 and the drug sensitivity score [3] is reported as 0.
`COc1cc(CCc2cc(NC(=O)c3ccc(N4CC(C)NC(C)C4)cc3)n[nH]2)cc(OC)c1` (stereo unspecified) [AZD4547] gave a drug sensitivity score [1] of 0.2 ± 0.28, a drug sensitivity score [2] of 0 and a drug sensitivity score [3] of 0.
`C[C@@H]1COCCN1c1cc(C2([S@](C)(=N)=O)CC2)nc(-c2cc[nH]c3nccc2-3)n1` [AZD6738] was tested, and the drug sensitivity score [1] was 20.1 ± 1.4, the drug sensitivity score [2] was 19.2 ± 0.71 and the drug sensitivity score [3] was 18 ± 0.57.
In the case of `CN(C)C(=O)c1ccc(S(=O)(=O)c2ccc(NC(=O)[C@@](C)(O)C(F)(F)F)c(Cl)c2)cc1` [AZD7545], the drug sensitivity score [1] is reported as 0.65 ± 0.071, the drug sensitivity score [2] is reported as 0 and the drug sensitivity score [3] is reported as 0.
`NC(=O)Nc1cc(-c2cccc(F)c2)sc1C(=O)N[C@H]1CCCNC1` [AZD7762] was tested, and the drug sensitivity score [1] was 9.8 ± 2, the drug sensitivity score [2] was 7.8 ± 2.1 and the drug sensitivity score [3] was 7.1 ± 0.71.
`N#Cc1ccc2[nH]c(O)c(-c3ccc(CN4CCOCC4)cn3)c2c1` [AZD-1080] was tested, and the drug sensitivity score [1] was 0, the drug sensitivity score [2] was 0 and the drug sensitivity score [3] was 0.
With `Cc1ncc(-c2ccnc(Nc3ccc(S(C)(=O)=O)cc3)n2)n1C(C)C` [AZD-5438] the drug sensitivity score [1] was 5.5 ± 0.99, the drug sensitivity score [2] was 8.8 ± 0.99 and the drug sensitivity score [3] was 9.8 ± 0.14.
Work on `Cc1cc([C@@H](C)Nc2ccccc2C(=O)O)c2nc(N3CCOCC3)cc(=O)n2c1` [AZD-6482] yielded a drug sensitivity score [1] of 0.1 ± 0.14, a drug sensitivity score [2] of 0.75 ± 1.1 and a drug sensitivity score [3] of 0.15 ± 0.21.
`C[C@@H](Nc1cc(F)cc(F)c1)c1cc(C(=O)N(C)C)cc2c(=O)cc(N3CCOCC3)oc12` [AZD-8186] was tested, and the drug sensitivity score [1] was 0, the drug sensitivity score [2] was 0.5 ± 0.71 and the drug sensitivity score [3] was 0.
`CCN1CCN(Cc2ccc(Nc3ncc(F)c(-c4cc(F)c5nc(C)n(C(C)C)c5c4)n3)nc2)CC1` [Abemaciclib] was tested, and the drug sensitivity score [1] was 10.2 ± 4.7, the drug sensitivity score [2] was 8.3 ± 6.1 and the drug sensitivity score [3] was 3.05 ± 0.071.
`CN(C)Cc1c(C(=O)NCCOc2ccc(C(=O)NO)cc2)oc2ccccc12` [Abexinostat] was tested, and the drug sensitivity score [1] was 24.4 ± 1.3, the drug sensitivity score [2] was 23.2 ± 2.4 and the drug sensitivity score [3] was 18.7 ± 0.28.
`CC#CC(=O)N1CCC[C@H]1c1nc(-c2ccc(C(=O)Nc3ccccn3)cc2)c2c(N)nccn12` [Acalabrutinib] was tested, and the drug sensitivity score [1] was 0, the drug sensitivity score [2] was 0.05 ± 0.071 and the drug sensitivity score [3] was 0.
`COc1cc(C)c(/C=C/C(C)=C/C=C/C(C)=C/C(=O)O)c(C)c1C` [Acitretin] gave a drug sensitivity score [1] of 0, a drug sensitivity score [2] of 1.3 ± 1.8 and a drug sensitivity score [3] of 0.
For `Cn1ncc(Cl)c1-c1cc(C(=O)N[C@H](CN)Cc2cccc(F)c2)sc1Cl` [Afuresertib], the drug sensitivity score [1] was 1.05 ± 1.1, the drug sensitivity score [2] was 1.6 ± 2.3 and the drug sensitivity score [3] was 0.
In the case of `COc1cccc2c1C(=O)c1c(O)c3c(c(O)c1C2=O)C[C@@](O)(/C(CO)=N/NC(=O)CCCCCN1C(=O)C=CC1=O)C[C@@H]3O[C@H]1C[C@H](N)[C@H](O)[C@H](C)O1` [Aldoxorubicin], the drug sensitivity score [1] is reported as 20.3 ± 0.71, the drug sensitivity score [2] is reported as 18.1 ± 0.35 and the drug sensitivity score [3] is reported as 11.2 ± 0.35.
For `CCc1cc2c(cc1N1CCC(N3CCOCC3)CC1)C(C)(C)c1[nH]c3cc(C#N)ccc3c1C2=O` [Alectinib], the drug sensitivity score [1] was 1.05 ± 0.35, the drug sensitivity score [2] was 0.7 ± 0.99 and the drug sensitivity score [3] was 0.
For `Cc1nc(NC(=O)N2CCC[C@H]2C(N)=O)sc1-c1ccnc(C(C)(C)C(F)(F)F)c1` [Alpelisib], the drug sensitivity score [1] was 2.5 ± 0.57, the drug sensitivity score [2] was 3 ± 1.8 and the drug sensitivity score [3] was 0.75 ± 1.1.
`O=C(Nc1cc(Oc2cc(F)c(NC(=O)C3(C(=O)Nc4ccc(F)cc4)CC3)cc2F)ccn1)C1CC1` [Altiratinib] was tested, and the drug sensitivity score [1] was 10.8, the drug sensitivity score [2] was 6.8 ± 0.85 and the drug sensitivity score [3] was 5.45 ± 0.21.
With `CCN(CC)CCNC(=O)c1c(C)[nH]c(/C=C2\C(=O)Nc3ccc(-c4csc(-c5ccccc5)n4)cc32)c1C` [Amcasertib] the drug sensitivity score [1] was 5.95 ± 1.6, the drug sensitivity score [2] was 5.35 ± 7.6 and the drug sensitivity score [3] was 0.
Compound `COc1cc(NS(C)(=O)=O)ccc1Nc1c2ccccc2nc2ccccc12` [Amsacrine] has a drug sensitivity score [1] of 35.3 ± 2.7, a drug sensitivity score [2] of 25.3 ± 0.71 and a drug sensitivity score [3] of 21.6 ± 0.85.
`S=C(NCc1ccc2c(c1)OCO2)N1CCN(c2ncnc3c2oc2ccccc23)CC1` [Amuvatinib] gave a drug sensitivity score [1] of 11.3 ± 1.3, a drug sensitivity score [2] of 8.45 ± 1.9 and a drug sensitivity score [3] of 14.9 ± 1.1.
Work on `CNC(=O)c1ccc(N2C(=S)N(c3cnc(C#N)c(C(F)(F)F)c3)C(=O)C23CCC3)cc1F` [Apalutamide] yielded a drug sensitivity score [1] of 0, a drug sensitivity score [2] of 0 and a drug sensitivity score [3] of 0.
With `N#CC1(c2ccc(NC(=O)c3cccnc3NCc3ccncc3)cc2)CCCC1` [Apatinib] the drug sensitivity score [1] was 0.4 ± 0.57, the drug sensitivity score [2] was 0 and the drug sensitivity score [3] was 0.
